Legend:
REH [1] = experiment: Cell viability (CellTiter Glo), compressed perturbation pools with informed pool design, MAX-based deconvolution, REH; conditions: REH; for DRS: None (measured individually), informed pool design table; for DRS from MAX-based deconvolution: Samples, 7 Pick 3 informed perturbation pools;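 as to all read-outs here: higher DRS means a larger drug effect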
Procedure: (§1) Total cell viability was measured for each sample using an ATP-based luminescence assay (i.e., CellTiter Glo). Each cancer drug was then screened at multiple concentrations ranging from one nM to ten μM in order to generate a dose-response curve and calculate a DRS for each cancer cell line.
(§2) Each cancer drug was cultured with target cells individually. At the end of the screen, samples were either analyzed individually or compressed into pools for analysis. The library was compressed alphabetically into ten cohorts, each of which contained seven cancer drugs present in three out of the seven pools, as shown in Table VII. Said another way, the screening platform 210 generated a “7 pick 3” compressed library by assigning the cancer drugs among different pools. […] The library was also compressed into ten cohorts with pools designed based on information known about each cancer drug, as shown in Table VIII. After cell viability measurement and DRS calculation, the DRS of each cancer drug in the samples generated based on the pools were deconvoluted and compared to the DRS for each cancer drug measured individually.
(§3) In parallel to the exemplary sample compression screen covered in Table VII, perturbations were compressed into pools and then screened. The pools were designed using drug class as a feature with two compression rules (or simply “rules”). The first rule required that drugs from the same class be separated into different cohorts (i.e., mutually exclusive groups of pools). […] A benefit of compressing perturbations is the ability to measure additive, antagonistic, and synergistic effects between drugs in the same pool. However, these effects can negatively impact deconvolution of individual drug effects. Therefore, combinations of drugs for which evidence of clinical toxicity exists can be assigned to different pools in accordance with an informed pooling operation. As new preclinical or clinical evidence of toxic combinations becomes available, the rules implemented by the screening platform 210—and more specifically, its algorithm for compressing members of a library—can be updated accordingly.
(§4) In MAX-based deconvolution, an assumption of neutrality between the compressed perturbations is made. In other words, the perturbation with the largest effect is assumed to be masking the effects, if any, of the other perturbations in the pool. For SUM- and MAX-based deconvolution, qualitative deconvolution is first performed to rank the perturbations in each pool based on size of expected effect. Qualitative deconvolution, as described above, ranks the perturbations in a pool from largest effect size to smallest effect size. The ranking is based on the overlap of each perturbation's unique subset of pools with the highest and lowest measured pools. The perturbation with the largest effect is expected to be present in the pools with the highest measured signal or corresponding metric (e.g., DRS), while the perturbation with the smallest effect is expected to be present in the pools with the lowest measured signal or corresponding metric (e.g., DRS).
(§5) For MAX-based deconvolution, the highest ranked perturbation in the rank order is first assigned an effect size based on the pool with the lowest measured signal or corresponding metric (e.g., DRS) that it is present in. Said another way, the screening platform 210 can identify the highest ranked perturbation in the rank order and then assign an effect size based on the measured signal or corresponding metric (e.g., DRS) of the “weakest” pool in which the highest ranked perturbation is included. The screening platform 210 can repeat this step for the next highest ranked perturbation, and so on until the measurements for each pool have been assigned to one of the perturbations. The effects for the remaining perturbations can be assigned a value of zero, since it is assumed that their effect is masked by the perturbation with the largest effect in each pool.

MOLT-4 [2] = experiment: Cell viability (CellTiter Glo), library of cancer drugs, individual or sample compression with randomized (alphabetical) pools, MOLT-4; type: cell-based; conditions: for DRS: MOLT-4, None (measured individually); for DRS from deconvolution: MOLT-4, Samples, 7 Pick 3 randomized (alphabetical) sample pools
Procedure: as §1, §2
(§6) In SUM-based deconvolution, an assumption of additivity is used to quantify the individual effects of each perturbation on each target. Additivity implies that each perturbation effect on each target is positively contributing to the overall effect measured for that pool. This is an accurate assumption for certain experiments, such as when targets or samples are compressed. When targets are pooled—or when samples containing different targets are pooled—the effect of each perturbation on each individual target is diluted. In other words, each perturbation has an isolated effect on a target in culture, and the sum total of the isolated effects are measured when pooled. Therefore, SUM-based deconvolution breaks down the sum total measured for a pool and assigns estimated fractional effects to each compressed perturbation or target in the pool. The screening platform 210 used SUM-based deconvolution for all target and sample compression experiments described above.

REH [3] = experiment: Cell viability (CellTiter Glo), library of cancer drugs, individual or sample compression with randomized (alphabetical) pools, REH; type: cell-based; conditions: REH; for DRS: None (measured individually); for DRS from deconvolution: Samples, 7 Pick 3 randomized (alphabetical) sample pools
Procedure: as §1, §2, §6

MOLT-4 [4] = experiment: Cell viability (CellTiter Glo), compressed perturbation pools with informed pool design, MAX-based deconvolution, MOLT-4; conditions: for DRS: MOLT-4, None (measured individually), informed pool design table; for DRS from MAX-based deconvolution: MOLT-4, Samples, 7 Pick 3 informed perturbation pools;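 as to all read-outs here: higher DRS means a larger drug effect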
Procedure: as §1, §2, §3, §4, §5

SMILES | DRS (REH [1]) | DRS from MAX-based deconvolution (REH [1]) | DRS (MOLT-4 [2]) | DRS from deconvolution (MOLT-4 [2]) | DRS (REH [3]) | DRS from deconvolution (REH [3]) | DRS (MOLT-4 [4]) | DRS from MAX-based deconvolution (MOLT-4 [4])
CN1CC[C@@H](NC(=O)Nc2ccc(C#N)cc2)C[C@@H]1c1nc2ccccc2[nH]1 [Glasdegib] | 0.00 | 0.00 | 0.03 | 0.00 | 1.63 | 1.45 | 0.00 | 0.00
C=CC(=O)N1CCC[C@@H](n2nc(-c3ccc(Oc4ccccc4)cc3)c3c(N)ncnc32)C1 [Ibrutinib] | 0.95 | 1.56 | 2.35 | 2.50 | 0.95 | 0.96 | 2.35 | 3.17
CC(C)C[C@H](NC(=O)CNC(=O)c1cc(Cl)ccc1Cl)B(O)O [Ixazomib] | 0.00 | 0.00 | 13.99 | 14.23 | 15.29 | 15.74 | 0.00 | 0.00
CS(=O)(=O)CCNCc1ccc(-c2ccc3ncnc(Nc4ccc(OCc5cccc(F)c5)c(Cl)c4)c3c2)o1 [Lapatinib] | 6.99 | 8.02 | 0.74 | 0.71 | 0.74 | 0.81 | 5.79 | 
O=C(Nc1cnn2ccc(N3CCC[C@@H]3c3cc(F)ccc3F)nc12)N1CC[C@H](O)C1 [Larotrectinib] | 0.74 | 0.00 | 0.00 | 0.00 | 0.00 | 0.00 | 0.74 | 0.00
N#Cc1ccc(C(c2ccc(C#N)cc2)n2cncn2)cc1 [Letrozole] | 0.00 | 0.00 | 3.50 | 3.47 | 3.93 | 4.02 | 0.00 | 0.00
C[C@H]1Oc2cc(cnc2N)-c2c(nn(C)c2C#N)CN(C)C(=O)c2ccc(F)cc21 [Lorlatinib] | 0.00 | 0.00 | 0.00 | 0.00 | 0.00 | 0.00 | 0.00 | 0.00
Cc1cn(-c2cc(NC(=O)c3ccc(C)c(Nc4nccc(-c5cccnc5)n4)c3)cc(C(F)(F)F)c2)cn1 [Nilotinib] | 0.00 | 0.00 | 3.95 | 3.88 | 2.85 | 2.97 | 0.00 | 0.00
O=C(c1cc(Cc2n[nH]c(=O)c3ccccc23)ccc1F)N1CCN(C(=O)C2CC2)CC1 [Olaparib] | 1.84 | 0.00 | 5.28 | 5.41 | 2.58 | 2.61 | 0.24 | 0.00
FC(F)(F)c1ccc(CNc2ccc(Cc3c[nH]c4ncc(Cl)cc34)cn2)cn1 [Pexidartinib] | 1.00 | 0.00 | 0.00 | 0.00 | 2.30 | 2.11 | 7.00 | 9.12
Cc1ccc(C(=O)Nc2ccc(CN3CCN(C)CC3)c(C(F)(F)F)c2)cc1C#Cc1cnc2cccnn12 [Ponatinib] | 0.84 | 0.00 | 6.12 | 6.51 | 4.42 | 3.86 | 0.24 | 0.00
CNC(=O)c1cc(Oc2ccc(NC(=O)Nc3ccc(Cl)c(C(F)(F)F)c3)c(F)c2)ccn1 [Regorafenib] | 2.85 | 2.97 | 5.79 | 5.22 | 6.99 | 7.23 | 3.95 | 4.25
CN(C)C(=O)c1cc2cnc(Nc3ccc(N4CCNCC4)cn3)nc2n1C1CCCC1 [Ribociclib] | 12.67 | 14.44 | 0.24 | 0.00 | 0.84 | 0.00 | 9.01 | 11.35
N#CC[C@H](C1CCCC1)n1cc(-c2ncnc3[nH]ccc23)cn1 [Ruxolitinib] | 0.60 | 0.00 | 1.60 | 1.74 | 0.00 | 0.00 | 0.00 | 0.00
Cn1cnc2c(F)c(Nc3ccc(Br)cc3Cl)c(C(=O)NOCCO)cc21 [Selumetinib] | 3.91 | 4.43 | 0.40 | 0.00 | 0.00 | 0.00 | 2.74 | 3.41
Cc1c(C(=O)Nc2ccc(N3C[C@@H](C)O[C@@H](C)C3)nc2)cccc1-c1ccc(OC(F)(F)F)cc1 [Sonidegib] | 0.79 | 3.57 | 2.50 | 2.47 | 2.40 | 2.42 | 1.79 | 0.00
CNC(=O)c1cc(Oc2ccc(NC(=O)Nc3ccc(Cl)c(C(F)(F)F)c3)cc2)ccn1 [Sorafenib] | 1.78 | 0.00 | 0.33 | 0.25 | 0.53 | 0.44 | 0.88 | 0.00
CCN(CC)CCNC(=O)c1c(C)[nH]c(/C=C2\C(=O)Nc3ccc(F)cc32)c1C [Sunitinib] | 3.10 | 0.00 | 0.56 | 0.50 | 0.06 | 0.00 | 2.60 | 0.00
CC/C(=C(\c1ccccc1)c1ccc(OCCN(C)C)cc1)c1ccccc1 [Tamoxifen] | 0.14 | 0.00 | 1.12 | 1.09 | 3.12 | 3.01 | 0.74 | 0.00
